Measured values as given in ChEMBL document CHEMBL1124910, “Inhibition of human leukocyte elastase. 1. Inhibition by C-7-substituted cephalosporin tert-butyl esters” (J Med Chem, 1990).

Key:
[1] = target: T1, Neutrophil elastase (Homo sapiens, UniProt P08246); experiment: Inhibitory concentration which is required to cause 50% inhibition of human leukocyte elastase (HLE) enzyme
T1 sequence (P08246 whole entry): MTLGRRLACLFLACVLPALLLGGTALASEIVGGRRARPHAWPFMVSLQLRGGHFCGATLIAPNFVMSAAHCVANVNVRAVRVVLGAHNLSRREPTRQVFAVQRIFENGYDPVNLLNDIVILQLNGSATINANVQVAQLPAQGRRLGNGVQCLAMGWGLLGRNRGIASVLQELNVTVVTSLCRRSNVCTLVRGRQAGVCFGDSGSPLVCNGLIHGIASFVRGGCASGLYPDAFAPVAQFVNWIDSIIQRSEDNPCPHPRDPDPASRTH

[2] = target: T2, Neutrophil elastase (Homo sapiens) (UniProt P08246)
T2 sequence (whole entry): T1 sequence (P08246 whole entry)
Description: Second-order rate constant (Kobs/[I]) for inactivation of Human Leukocyte Elastase was determined

[3] = target: T2, Neutrophil elastase (Homo sapiens); experiment: Second-order rate constant (Kobs/[I]) for inactivation was determined
[4] = target: T1, Neutrophil elastase; experiment: Inhibitory concentration which is required to cause 50% inhibition of human leukocyte elastase (HLE) enzyme; NVT indicates nonvalid test
[5] = target: T3, Pancreatic elastase (Sus scrofa, UniProt P08419+P00772); experiment: Inhibitory concentration which is required to cause 50% inhibition of Porcine pancreatic elastase (PPE) enzyme; assay type: protein assay
[6] = target: T4, Serine protease 1 (Bos taurus, UniProt P00760); experiment: Inhibitory concentration which is required to cause 50% inhibition of Trypsin
T4 sequence (P00760 whole entry): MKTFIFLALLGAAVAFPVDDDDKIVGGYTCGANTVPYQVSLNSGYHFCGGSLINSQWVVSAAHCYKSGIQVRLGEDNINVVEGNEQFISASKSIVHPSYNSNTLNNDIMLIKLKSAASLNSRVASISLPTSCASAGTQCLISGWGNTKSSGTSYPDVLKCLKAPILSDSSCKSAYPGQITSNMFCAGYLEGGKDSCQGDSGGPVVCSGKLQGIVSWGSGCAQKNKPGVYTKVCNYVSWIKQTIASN

[7] = target: T5, Chymotrypsinogen A (Bos taurus, UniProt P00766); experiment: Inhibitory concentration which is required to cause 50% inhibition of alpha-chymotrypsin enzyme
[8] = target: T4, Serine protease 1; experiment: Inhibitory concentration which is required to cause 50% inhibition of bovine trypsin (Trp)
[9] = target: T3, Pancreatic elastase; experiment: Inhibitory concentration which is required to cause 50% inhibition of porcine pancreatic elastase (PPE); assay type: protein assay
[10] = target: T5, Chymotrypsinogen A; experiment: Inhibitory concentration which is required to cause 50% inhibition of bovine alpha-chymotrypsin (ChT)

Compound `CC(=O)OCC1=C(C(=O)OC(C)(C)C)N2C(=O)[C@H](NC(=O)C(F)(F)F)[C@H]2S(=O)(=O)C1` has an IC50 [1] of 2 µM.

Work on `CC(=O)OCC1=C(C(=O)OC(C)(C)C)N2C(=O)[C@H](F)[C@H]2S(=O)(=O)C1` yielded an IC50 [1] of 0.06 µM.

`CO[C@H]1C(=O)N2C(C(=O)OC(C)(C)C)=C(COC(C)=O)CS(=O)(=O)[C@H]12` gave a K obs / 1 [2] of 19000 M⁻¹ s⁻¹ and an IC50 [1] of 1 µM.

`CC(=O)OCC1=C(C(=O)OC(C)(C)C)N2C(=O)[C@H](Cl)[C@H]2SC1` was tested, and the IC50 [1] was 2 µM.

Work on `O=C(O)[C@H]1/C(=C/CO)O[C@@H]2CC(=O)N21` [CLAVULANIC ACID] yielded an IC50 [1] of under 40 µM.

`CCCC[C@H]1C(=O)N2C(C(=O)OC(C)(C)C)=C(COC(C)=O)CS(=O)(=O)[C@H]12` showed an IC50 [1] of 40 µM.

With `COC(=O)N[C@H]1C(=O)N2C(C(=O)OC(C)(C)C)=C(COC(C)=O)CS(=O)(=O)[C@H]12` the K obs / 1 [3] was 1600 M⁻¹ s⁻¹ and the IC50 [1] was 4 µM.

`CC(=O)OCC1=C(C(=O)OC(C)(C)C)N2C(=O)[C@H](NC=O)[C@H]2S(=O)(=O)C1` was tested, and the K obs / 1 [3] was 1200 M⁻¹ s⁻¹ and the IC50 [1] was 4 µM.

In the case of `CC(=O)OCC1=C(C(=O)OC(C)(C)C)N2C(=O)[C@@H](NC(=O)Cc3cccs3)[C@H]2S(=O)(=O)C1`, the IC50 [1] is reported as over 40 µM.

`CCC(C)O[C@H]1C(=O)N2C(C(=O)OC(C)(C)C)=C(COC(C)=O)CS(=O)(=O)[C@H]12` (some centres undefined) was tested, and the IC50 [1] was 28 µM.

For `CC(=O)OCC1=C(C(=O)OC(C)(C)C)N2C(=O)[C@H](OC(=O)c3ccccc3)[C@H]2S(=O)(=O)C1`, the IC50 [1] was over 40 µM.

With `CCC(C)O[C@H]1C(=O)N2C(C(=O)OC(C)(C)C)=C(COC(C)=O)CS[C@H]12` (some centres undefined) the IC50 [1] was over 40 µM.

Work on `CCCCO[C@H]1C(=O)N2C(C(=O)OC(C)(C)C)=C(COC(C)=O)CS(=O)(=O)[C@H]12` yielded an IC50 [1] of over 40 µM.

Compound `CC(=O)OCC1=C(C(=O)OC(C)(C)C)N2C(=O)[C@H](OC(=O)COc3ccccc3)[C@H]2S(=O)(=O)C1` has an IC50 [1] of 6 µM.

`CCCCO[C@H]1C(=O)N2C(C(=O)OC(C)(C)C)=C(COC(C)=O)CS[C@H]12` showed an IC50 [1] of over 40 µM.

`CCO[C@H]1C(=O)N2C(C(=O)OC(C)(C)C)=C(COC(C)=O)C[S+]([O-])[C@H]12` (stereo in doubt; 7b) gave an IC50 [1] of over 40 µM.

With `CO[C@H]1C(=O)N2C(C(=O)OC(C)(C)C)=C(COC(C)=O)C[S@+]([O-])[C@H]12` the K obs / 1 [3] was 500 M⁻¹ s⁻¹ and the IC50 [1] was 4 µM.

For `CCC(=O)O[C@H]1C(=O)N2C(C(=O)OC(C)(C)C)=C(COC(C)=O)CS[C@H]12`, the IC50 [1] was 36 µM.

In the case of `O=C(OCc1ccccc1)[C@H]1/C(=C/CO)O[C@@H]2CC(=O)N21`, the IC50 [1] is reported as 4 µM.

In the case of `CC(=O)OCC1=C(C(=O)OC(C)(C)C)N2C(=O)[C@H](OS(=O)(=O)c3ccc(C)cc3)[C@H]2SC1`, the IC50 [4] is reported as “Non valid test”.

Compound `CC(=O)OCC1=C(C(=O)OC(C)(C)C)N2C(=O)C[C@H]2S(=O)(=O)C1` has an IC50 [1] of over 40 µM.

`CCC(=O)O[C@H]1C(=O)N2C(C(=O)OC(C)(C)C)=C(COC(C)=O)CS(=O)(=O)[C@H]12` showed a K obs / 1 [2] of 80 M⁻¹ s⁻¹ and an IC50 [1] of 10 µM.

Compound `CO[C@H]1C(=O)N2C(C(=O)OC(C)(C)C)=C(COC(C)=O)C[S@@+]([O-])[C@H]12` has an IC50 [1] of over 40 µM.

In the case of `CC(=O)OCC1=C(C(=O)OC(C)(C)C)N2C(=O)[C@@H](N)[C@H]2SC1`, the IC50 [1] is reported as over 40 µM.

`CCO[C@H]1C(=O)N2C(C(=O)OC(C)(C)C)=C(COC(C)=O)CS[C@H]12` was tested, and the IC50 [1] was over 40 µM.

`CC(=O)OCC1=C(C(=O)OC(C)(C)C)N2C(=O)[C@H](OCCc3ccccc3)[C@H]2S(=O)(=O)C1` gave an IC50 [1] of 5 µM.

For `CC(=O)OCC1=C(C(=O)OC(C)(C)C)N2C(=O)[C@@H](NC(=O)C(F)(F)F)[C@H]2S(=O)(=O)C1`, the IC50 [1] was over 40 µM.

For `CC(=O)OCC1=C(C(=O)OC(C)(C)C)N2C(=O)[C@H](F)[C@H]2SC1`, the IC50 [1] was 20 µM.

With `CC(=O)OCC1=C(C(=O)OC(C)(C)C)N2C(=O)[C@H](OC(=O)Cc3ccccc3)[C@H]2S(=O)(=O)C1` the IC50 [5] was 20 µM, the IC50 [6] was over 40 µM and the IC50 [7] was 4 µM. The IC50 [1] was 10 µM.

`CNC(=O)O[C@H]1C(=O)N2C(C(=O)OC(C)(C)C)=C(COC(C)=O)CS(=O)(=O)[C@H]12` gave a K obs / 1 [2] of 180 M⁻¹ s⁻¹ and an IC50 [1] of 1 µM.

Compound `CC(=O)OCC1=C(C(=O)OC(C)(C)C)N2C(=O)[C@H](Oc3ccccc3)[C@H]2S(=O)(=O)C1` has a K obs / 1 [2] of 720 M⁻¹ s⁻¹ and an IC50 [1] of 1 µM.

For `CO[C@H]1C(=O)N2C(C(=O)OC(C)(C)C)=C(COC(C)=O)CS[C@H]12`, the IC50 [1] was 10 µM.

With `CCC(CC)O[C@H]1C(=O)N2C(C(=O)OC(C)(C)C)=C(COC(C)=O)CS(=O)(=O)[C@H]12` the IC50 [1] was over 40 µM.

Compound `CO[C@@H]1C(=O)N2C(C(=O)OC(C)(C)C)=C(COC(C)=O)CS(=O)(=O)[C@H]12` has an IC50 [1] of over 40 µM.

For `CC(=O)OCC1=C(C(=O)OC(C)(C)C)N2C(=O)[C@H](Cl)[C@H]2S(=O)(=O)C1`, the K obs / 1 [2] was 161000 M⁻¹ s⁻¹ and the IC50 [1] was 0.04 µM.

Compound `CC(=O)OCC1=C(C(=O)OC(C)(C)C)N2C(=O)[C@H](NC(=O)Cc3cccs3)[C@H]2S(=O)(=O)C1` has an IC50 [1] of over 40 µM.

Work on `CC(=O)OCC1=C(C(=O)OC(C)(C)C)N2C(=O)[C@H](OC=O)[C@H]2S(=O)(=O)C1` yielded an IC50 [8] of over 40 µM, a K obs / 1 [3] of 59000 M⁻¹ s⁻¹ and an IC50 [1] of 0.3 µM. It also gave an IC50 [9] of 0.4 µM.

In the case of `CC(=O)OCC1=C(C(=O)OC(C)(C)C)N2C(=O)[C@H](OCc3ccccc3)[C@H]2S(=O)(=O)C1`, the IC50 [1] is reported as over 10 µM.

Work on `CCCO[C@H]1C(=O)N2C(C(=O)OC(C)(C)C)=C(COC(C)=O)CS[C@H]12` yielded an IC50 [1] of over 40 µM.

Compound `CCO[C@H]1C(=O)N2C(C(=O)OC(C)(C)C)=C(COC(C)=O)C[S+]([O-])[C@H]12` (stereo in doubt; 6b) has an IC50 [1] of 40 µM.

`CC(=O)OCC1=C(C(=O)OC(C)(C)C)N2C(=O)[C@H](OC(C)=O)[C@H]2S(=O)(=O)C1` gave an IC50 [6] of over 40 µM, an IC50 [10] of over 40 µM and a K obs / 1 [2] of 950 M⁻¹ s⁻¹. The IC50 [1] was 6 µM and the IC50 [9] was 2 µM.
